Results reported in patent US10689362B2, “Quinoxaline compounds as type III receptor tyrosine kinase inhibitors” (Development Center for Biotechnology, priority 2016, dated 2020).

Legend:
[1] = test system: CSF-1-dependent M-NFS-60 mouse myeloid leukemia cell; assay: M-NFS-60 cell proliferation assay (CellTiter-96); type: cell-based; details: Cytotoxicity, M-NFS-60 cells, 72 hours
Outline: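 CSF-1-dependent M-NFS-60 cells seeded at 2000 cells/well, settled overnight at 37 °C, 5% CO2, then exposed to increasing compound concentrations for 72 h. Viability read by CellTiter 96 AQueous One reagent (4 h) at 490 nm absorbance.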

[2] = test system: THP-1 human acute monocytic leukemia cell harboring NRAS G12D mutation; assay: THP-1 cell proliferation assay (counter screen, CellTiter-96); type: cell-based; details: Cytotoxicity, THP-1 cells (counter screen), 72 hours
Outline: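 THP-1 cells, RTK-independent owing to NRAS G12D, seeded at 5000/well, incubated overnight at 37 °C/5% CO2, then exposed to increasing compound concentrations for 72 h. CellTiter96 AQueous One reagent added for 4 h; viability from absorbance at 490 nm.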

FLT3 kinase = FLT3 kinase (Homo sapiens (Human), UniProt P36888); assay: FLT3 kinase assay (radiometric); type: biochemical; details: bound
Outline: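 Recombinant FLT3 (5 ng) phosphorylating poly(Glu4:Tyr1) (2 μg) with 10 μM ATP plus [^33P]-ATP in MOPS pH 7.0 buffer, 4% DMSO final, 60 min at 30° C. Reaction stopped with phosphoric acid, filter-captured and scintillation-counted; IC50 derived from dose-response.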

PDGFRβ kinase = PDGFRβ kinase (Homo sapiens (Human), UniProt P09619); assay: PDGFRβ kinase assay (radiometric); type: biochemical
Outline: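 Radiometric assay: recombinant PDGFRβ with poly(Glu4:Tyr1) in MOPS pH 7.0 buffer containing Mg2+/Mn2+, 10 μM ATP plus [33P]-ATP, and compound at 4% DMSO final. Incubated 60 min at 30° C, stopped with phosphoric acid, filter-captured and scintillation-counted. IC50 from curve fitting.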

[3] = test system: Kasumi-1 human acute myeloid leukemia cell with c-KIT N822K activating mutation; assay: Kasumi-1 cell proliferation assay (CellTiter-96); type: cell-based; details: Cytotoxicity, Kasumi-1 cells, 72 hours
Outline: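 Kasumi-1 cells, seeded at 64000 cells/well and incubated overnight at 37 °C, were exposed to increasing compound concentrations for 72 h. Viability was measured by CellTiter96 AQueous One reagent (4 h) and absorbance at 490 nm.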

[4] = test system: MV4-11 human acute myeloid leukemia cell with FLT3-ITD mutation; assay: MV4-11 cell proliferation assay (CellTiter-96); type: cell-based; details: Cytotoxicity, MV4-11 cells, 72 hours
Outline: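 MV4-11 cells (FLT3-ITD, FLT3-dependent growth) seeded at 6500 cells/well, incubated overnight at 37° C., 5% CO2, then exposed to increasing compound concentrations for 72 hours. Viability read by CellTiter96 AQueous One reagent (4 hours), absorbance at 490 nm.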

CSF-1R kinase = CSF-1R kinase (Homo sapiens (Human), UniProt P07333); assay: CSF-1R kinase assay (AlphaScreen); type: biochemical; details: class symbol
Method: Inhibition of CSF-1R kinase activity by a test compound disclosed herein was estimated by AlphaScreen (PerkinElmer). […] Reactions were incubated at 30° C. for 45 min and stopped by adding 5 μL of 50 mM EDTA. Analysis of resulting product using an AlphaScreen kit, and counted with Enspire Alpha (PerkinElmer). […] The IC50 values of quinoxaline compounds of this invention against CSF-1R kinase were determined using the GraphPad Prism 5 software.

[5] = test system: osteoclast precursors (osteoclast differentiation); assay: Osteoclast tartrate-resistant acid phosphatase assay; type: cell-based; details: 168 h, at 1 μM treatment, 7 days, RANKL and M-CSF, read-out: inhibition activity against osteoclast differentiation
Outline: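 Differentiation inhibition was scored at 1 μM compound in duplicate, using supernatant TRAP activity read at 550 nm with an acid phosphatase kit.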

c-KIT kinase = c-KIT kinase (Homo sapiens (Human), UniProt P10721); assay: c-KIT kinase assay (radiometric); type: biochemical
Outline: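 Recombinant c-Kit (20 ng) with 2 μg Poly-(Glu4:Tyr1) in MOPS pH 7.0 buffer with MgCl2/MnCl2, 10 μM ATP plus [^33P]-ATP, 4% DMSO final, 60 min at 30° C. Stopped with phosphoric acid, filter-captured and scintillation counted; IC50 from curve fit.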

c-KIT kinase, sequence (P10721 26-976): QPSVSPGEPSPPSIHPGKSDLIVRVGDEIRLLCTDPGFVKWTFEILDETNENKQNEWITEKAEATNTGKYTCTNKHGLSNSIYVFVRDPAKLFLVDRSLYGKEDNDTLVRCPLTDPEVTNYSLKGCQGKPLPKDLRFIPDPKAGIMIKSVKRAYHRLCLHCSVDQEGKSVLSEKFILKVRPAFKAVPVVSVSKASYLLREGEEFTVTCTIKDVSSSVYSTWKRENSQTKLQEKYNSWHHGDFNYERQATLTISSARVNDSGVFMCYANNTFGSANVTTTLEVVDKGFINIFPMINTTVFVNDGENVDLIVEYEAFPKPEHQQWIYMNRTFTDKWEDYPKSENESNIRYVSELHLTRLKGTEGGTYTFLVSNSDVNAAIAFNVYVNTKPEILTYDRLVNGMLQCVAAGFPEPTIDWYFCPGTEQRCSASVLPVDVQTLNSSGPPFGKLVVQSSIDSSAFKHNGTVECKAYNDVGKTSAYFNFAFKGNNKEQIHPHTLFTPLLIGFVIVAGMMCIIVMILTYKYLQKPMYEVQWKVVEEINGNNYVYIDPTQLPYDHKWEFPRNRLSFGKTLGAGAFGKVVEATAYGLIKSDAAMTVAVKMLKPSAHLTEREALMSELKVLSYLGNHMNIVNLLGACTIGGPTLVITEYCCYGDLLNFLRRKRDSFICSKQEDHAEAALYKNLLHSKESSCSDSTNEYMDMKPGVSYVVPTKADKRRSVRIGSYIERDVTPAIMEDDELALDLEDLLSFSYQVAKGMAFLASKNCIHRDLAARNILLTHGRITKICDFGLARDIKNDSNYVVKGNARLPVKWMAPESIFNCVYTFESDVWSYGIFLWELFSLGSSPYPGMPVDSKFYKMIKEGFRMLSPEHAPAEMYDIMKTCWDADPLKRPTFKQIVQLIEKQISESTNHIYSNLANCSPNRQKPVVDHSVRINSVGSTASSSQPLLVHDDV
CSF-1R kinase, sequence (P07333 20-972): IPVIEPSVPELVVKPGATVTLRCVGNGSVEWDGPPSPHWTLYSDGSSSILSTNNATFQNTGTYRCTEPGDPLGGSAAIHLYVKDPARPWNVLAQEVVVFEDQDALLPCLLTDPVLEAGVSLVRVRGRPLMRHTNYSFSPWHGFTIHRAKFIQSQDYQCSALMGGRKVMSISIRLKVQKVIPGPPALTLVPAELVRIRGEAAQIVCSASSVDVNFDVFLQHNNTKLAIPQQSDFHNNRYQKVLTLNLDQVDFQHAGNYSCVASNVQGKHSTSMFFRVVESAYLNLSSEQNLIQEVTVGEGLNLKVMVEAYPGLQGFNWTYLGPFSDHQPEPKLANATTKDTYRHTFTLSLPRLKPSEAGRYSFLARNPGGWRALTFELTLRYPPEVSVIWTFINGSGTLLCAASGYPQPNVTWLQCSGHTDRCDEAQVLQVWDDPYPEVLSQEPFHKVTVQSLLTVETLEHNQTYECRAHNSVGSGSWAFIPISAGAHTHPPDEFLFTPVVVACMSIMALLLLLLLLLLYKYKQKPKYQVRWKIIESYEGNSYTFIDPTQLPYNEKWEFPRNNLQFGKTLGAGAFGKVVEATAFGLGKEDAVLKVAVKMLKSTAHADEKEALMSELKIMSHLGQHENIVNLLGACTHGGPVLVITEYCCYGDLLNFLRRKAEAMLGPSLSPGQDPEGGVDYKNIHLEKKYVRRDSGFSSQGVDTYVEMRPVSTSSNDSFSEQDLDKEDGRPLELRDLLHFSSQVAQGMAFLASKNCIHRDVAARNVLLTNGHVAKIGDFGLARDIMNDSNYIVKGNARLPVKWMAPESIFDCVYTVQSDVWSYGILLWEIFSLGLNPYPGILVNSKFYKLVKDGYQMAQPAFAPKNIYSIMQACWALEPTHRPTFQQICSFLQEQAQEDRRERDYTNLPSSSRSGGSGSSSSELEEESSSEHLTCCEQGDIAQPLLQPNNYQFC
FLT3 kinase, sequence (P36888 27-993): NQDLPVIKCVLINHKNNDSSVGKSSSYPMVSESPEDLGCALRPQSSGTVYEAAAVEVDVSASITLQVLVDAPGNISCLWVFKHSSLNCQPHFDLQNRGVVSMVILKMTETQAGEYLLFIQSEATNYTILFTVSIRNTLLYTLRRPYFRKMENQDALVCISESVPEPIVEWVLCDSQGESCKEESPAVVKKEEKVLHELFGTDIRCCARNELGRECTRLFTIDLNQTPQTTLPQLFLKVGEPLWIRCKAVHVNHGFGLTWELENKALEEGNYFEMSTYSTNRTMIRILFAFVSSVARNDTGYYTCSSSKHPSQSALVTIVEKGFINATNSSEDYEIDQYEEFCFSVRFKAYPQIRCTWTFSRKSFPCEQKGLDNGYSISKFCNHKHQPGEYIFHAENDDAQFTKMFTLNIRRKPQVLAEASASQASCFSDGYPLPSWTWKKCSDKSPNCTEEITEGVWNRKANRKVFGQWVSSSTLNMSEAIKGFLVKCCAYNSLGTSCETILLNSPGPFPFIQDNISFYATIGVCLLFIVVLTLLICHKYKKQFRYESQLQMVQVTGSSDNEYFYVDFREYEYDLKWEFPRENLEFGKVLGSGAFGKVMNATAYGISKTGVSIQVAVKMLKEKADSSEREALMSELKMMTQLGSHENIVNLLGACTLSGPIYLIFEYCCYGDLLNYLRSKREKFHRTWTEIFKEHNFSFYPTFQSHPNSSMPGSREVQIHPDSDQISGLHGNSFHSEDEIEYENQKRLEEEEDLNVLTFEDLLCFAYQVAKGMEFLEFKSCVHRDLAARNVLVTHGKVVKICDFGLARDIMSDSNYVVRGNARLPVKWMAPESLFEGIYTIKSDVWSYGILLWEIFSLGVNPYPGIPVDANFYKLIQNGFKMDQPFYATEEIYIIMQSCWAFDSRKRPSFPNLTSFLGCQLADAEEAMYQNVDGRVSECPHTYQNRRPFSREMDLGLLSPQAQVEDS
PDGFRβ kinase, sequence (P09619 33-1106): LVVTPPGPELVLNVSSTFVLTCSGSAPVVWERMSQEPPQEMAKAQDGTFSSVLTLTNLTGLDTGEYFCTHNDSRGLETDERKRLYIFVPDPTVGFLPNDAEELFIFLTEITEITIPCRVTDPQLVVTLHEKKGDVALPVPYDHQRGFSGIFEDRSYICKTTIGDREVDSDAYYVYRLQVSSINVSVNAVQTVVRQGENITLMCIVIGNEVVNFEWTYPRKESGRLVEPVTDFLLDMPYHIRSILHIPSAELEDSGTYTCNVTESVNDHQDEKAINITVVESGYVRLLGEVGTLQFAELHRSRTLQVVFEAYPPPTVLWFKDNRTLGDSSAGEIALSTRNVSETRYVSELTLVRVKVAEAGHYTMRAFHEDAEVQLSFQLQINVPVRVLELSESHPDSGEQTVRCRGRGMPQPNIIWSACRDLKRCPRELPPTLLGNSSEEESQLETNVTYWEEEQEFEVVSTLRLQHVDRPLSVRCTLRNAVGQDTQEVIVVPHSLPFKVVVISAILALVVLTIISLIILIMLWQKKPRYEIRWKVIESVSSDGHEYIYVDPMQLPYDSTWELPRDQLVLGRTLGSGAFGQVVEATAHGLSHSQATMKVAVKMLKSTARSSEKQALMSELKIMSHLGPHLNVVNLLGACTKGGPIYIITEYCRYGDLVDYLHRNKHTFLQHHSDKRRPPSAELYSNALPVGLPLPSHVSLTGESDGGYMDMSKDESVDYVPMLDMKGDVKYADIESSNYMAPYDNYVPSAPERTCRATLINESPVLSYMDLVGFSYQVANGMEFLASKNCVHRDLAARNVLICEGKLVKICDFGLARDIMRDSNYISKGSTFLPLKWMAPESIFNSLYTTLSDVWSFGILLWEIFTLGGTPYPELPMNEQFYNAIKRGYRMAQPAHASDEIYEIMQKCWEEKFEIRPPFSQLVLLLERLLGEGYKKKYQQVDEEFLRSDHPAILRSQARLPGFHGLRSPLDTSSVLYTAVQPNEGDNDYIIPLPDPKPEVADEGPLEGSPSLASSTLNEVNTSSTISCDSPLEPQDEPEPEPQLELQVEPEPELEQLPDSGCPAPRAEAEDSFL

| SMILES | IC50 [1] [µM] | IC50 [2] [µM] | IC50 (FLT3 kinase) [µM] | IC50 (PDGFRβ kinase; bound) [µM] | IC50 [3] [µM] | IC50 [4] [µM] | IC50 (CSF-1R kinase) [µM] | inhibition at 1 µM [5] [%] | IC50 (c-KIT kinase; class symbol) [µM] | IC50 (c-KIT kinase; bound) [µM] | IC50 (PDGFRβ kinase; class symbol) [µM] |
| --- | --- | --- | --- | --- | --- | --- | --- | --- | --- | --- | --- |
| COc1ccc(COc2ccc(Nc3ccc4ncc(N5CCOCC5)nc4c3C#N)cc2OC)c(F)c1 [Example 94, 6-((4-((2-fluoro-4-methoxybenzyl)oxy)-3-methoxyphenyl)amino)-3-morpholinoquinoxaline-5-carbonitrile] | < 0.3 | > 10 | > 1 | > 1 | 0.3 to 1 | > 10 | < 0.1 | > 50 | < 0.1 | – | – |
| COc1cc(Nc2ccc3ncc(N4CCOCC4)nc3c2C#N)ccc1OCc1ccc(F)cc1 [Example 40, 6-((4-((4-fluorobenzyl)oxy)-3-methoxyphenyl)amino)-3-morpholinoquinoxaline-5-carbonitrile] | < 0.3 | > 10 | > 1 | > 1 | > 10 | > 10 | < 0.1 | > 50 | – | > 1 | – |
| COc1cc(N(C)c2ccc3ncc(N4CCOCC4)nc3c2C#N)ccc1OCc1ccc(C)nc1 [Example 129, 6-((3-methoxy-4-((6-methylpyridin-3-yl)methoxy)phenyl)(methyl)amino)-3-morpholinoquinoxaline-5-carbonitrile] | 0.3 to 1 | > 10 | > 1 | > 1 | 1 to 10 | 1 to 10 | < 0.1 | > 50 | 0.3 to 1 | – | – |
| COc1cc(Nc2ccc3ncc(N4CCOCC4)nc3c2C#N)ccc1OCc1ccc(C(F)(F)F)nc1 [Example 73, 6-((3-methoxy-4-((6-(trifluoromethyl)pyridin-3-yl)methoxy)phenyl)amino)-3-morpholinoquinoxaline-5-carbonitrile] | < 0.3 | > 10 | > 1 | > 1 | < 0.3 | > 10 | < 0.1 | > 50 | < 0.1 | – | – |
| COc1cc(Nc2ccc3ncc(N4CCOCC4)nc3c2C#N)ccc1OCc1ccccc1 [Example 88, 6-((4-(benzyloxy)-3-methoxyphenyl)amino)-3-morpholinoquinoxaline-5-carbonitrile] | < 0.3 | > 10 | > 1 | > 1 | 0.3 to 1 | 1 to 10 | < 0.1 | > 50 | < 0.1 | – | – |
| COc1ccc(COc2ccc(Nc3ccc4ncc(N5CCOCC5)nc4c3C#N)cc2OC)cc1OC [Example 58, 6-((4-((3,4-dimethoxybenzyl)oxy)-3-methoxyphenyl)amino)-3-morpholinoquinoxaline-5-carbonitrile] | < 0.3 | > 10 | > 1 | – | < 0.3 | > 10 | < 0.1 | > 50 | < 0.1 | – | 0.3 to 1 |
| COc1cc(Nc2ccc3ncc(N4CCOCC4)nc3c2C#N)cnc1OCc1ccc(C)nc1 [Example 143, 6-((5-methoxy-6-((6-methylpyridin-3-yl)methoxy)pyridin-3-yl)amino)-3-morpholinoquinoxaline-5-carbonitrile] | < 0.3 | > 10 | > 1 | > 1 | > 10 | 1 to 10 | < 0.1 | > 50 | 0.3 to 1 | – | – |
| COc1cc(Nc2ccc3ncc(N4CCOCC4)nc3c2C(N)=O)ccc1OCc1ccc(C)nc1 [Example 135, 6-((3-methoxy-4-((6-methylpyridin-3-yl)methoxy)phenyl)amino)-3-morpholinoquinoxaline-5-carboxamide] | < 0.3 | > 10 | > 1 | > 1 | < 0.3 | 1 to 10 | < 0.1 | > 50 | < 0.1 | – | – |
| COc1ccc(COc2ccc(Nc3ccc4ncc(N5CCC(COC(C)=O)CC5)nc4c3C#N)cc2OC)cc1 [Example 71, (1-(8-cyano-7-((3-methoxy-4-((4-methoxybenzyl)oxy)phenyl)amino)quinoxalin-2-yl)piperidin-4-yl)methyl acetate] | < 0.3 | > 10 | > 1 | > 1 | < 0.3 | > 10 | < 0.1 | > 50 | < 0.1 | – | – |
| COc1ccc(COc2ccc(Nc3ccc4ncc(N5CCOCC5)nc4c3C#N)cc2F)cc1 [Example 56, 6-((3-fluoro-4-((4-methoxybenzyl)oxy)phenyl)amino)-3-morpholinoquinoxaline-5-carbonitrile] | 0.3 to 1 | > 10 | > 1 | > 1 | 1 to 10 | 0.3 to 1 | < 0.1 | > 50 | 0.1 to 0.3 | – | – |
| C=C(C)c1cnc2ccc(Nc3ccc(OCc4ccc(OC)cc4)c(OC)c3)cc2n1 [Example 106, N-(3-methoxy-4-((4-methoxybenzyl)oxy)phenyl)-3-(prop-1-en-2-yl)quinoxalin-6-amine] | 0.3 to 1 | > 10 | > 1 | > 1 | 1 to 10 | > 10 | < 0.1 | > 50 | 0.3 to 1 | – | – |
| CCOc1ccc(COc2ccc(Nc3ccc4ncc(N5CCOCC5)nc4c3C#N)cc2OC)cc1 [Example 35, 6-((4-((4-ethoxybenzyl)oxy)-3-methoxyphenyl)amino)-3-morpholinoquinoxaline-5-carbonitrile] | < 0.3 | > 10 | > 1 | – | < 0.3 | 1 to 10 | < 0.1 | > 50 | < 0.1 | – | 0.3 to 1 |
| COc1ccc(COc2ccc(Nc3ccc4ncc(N(C)C)nc4c3C#N)cc2OC)cn1 [Example 137, 3-(dimethylamino)-6-((3-methoxy-4-((6-methoxypyridin-3-yl)methoxy)phenyl)amino)quinoxaline-5-carbonitrile] | < 0.3 | > 10 | > 1 | > 1 | 0.3 to 1 | 1 to 10 | < 0.1 | > 50 | < 0.1 | – | – |
| CNc1cnc2ccc(Nc3ccc(OCc4ccc(OC)cc4)c(OC)c3)c(C#N)c2n1 [Example 12, 6-((3-methoxy-4-((4-methoxybenzyl)oxy)phenyl)amino)-3-(methylamino)quinoxaline-5-carbonitrile] | < 0.3 | > 10 | > 1 | > 1 | 0.3 to 1 | > 10 | < 0.1 | > 50 | < 0.1 | – | – |
| COc1ccc(COc2ccc(Nc3ccc4ncc(N5CCN(C)CC5)nc4c3C#N)cc2OC)cn1 [Example 95, 6-((3-methoxy-4-((6-methoxypyridin-3-yl)methoxy)phenyl)amino)-3-(4-methylpiperazin-1-yl)quinoxaline-5-carbonitrile] | < 0.3 | 1 to 10 | > 1 | > 1 | 0.3 to 1 | 1 to 10 | < 0.1 | > 50 | 0.1 to 0.3 | – | – |
